# Experiments:
# Phytophthora infestans = format: in vivo; settings: 125 ppm, 200 L/10 a spray on tomato (5 leaf stage), inoculated next day; diseased area rates of third to fifth true leaves after 3 days in green house, graded by Table 5
# Pyricularia oryzae = format: in vivo; settings: 200 ppm spray on rice (Koshihikari, 3 leaf stage), inoculated next day; lesion numbers on third leaves after 7 days in green house, graded by Table 5
# [1] = tested on: Pseudoperonospora cubensis; assay: Effect test for cucumber downy mildew (Evaluation Example 4); format: in vivo; settings: 125 ppm, 200 L/10 a spray on cucumber (3 leaf stage), inoculated next day; diseased area rates of first and second true leaves after 3 days in green house, graded by Table 5
# Method: The active ingredient compound was diluted with water containing 0.01% Tween 20 to have a concentration of 125 ppm. […] Next day, a zoosporangium suspension of Pseudoperonospora cubensis which was the causative fungus of cucumber downy mildew was sprayed to inoculate.
# [2] = tested on: Colletotrichum lagenarium; settings: 200 ppm spray on cucumber (3 leaf stage), inoculated next day; lesion numbers on first and second leaves after 7 days in green house, graded by Table 5
Structure (SMILES),Evaluation (effect for tomato late blight) (Phytophthora infestans),Evaluation (effect for rice blast) (Pyricularia oryzae),Evaluation (effect for cucumber downy mildew) [1],Evaluation (effect for cucumber anthracnose) [2]
"O=C(NCc1cc(CCl)no1)c1ccc(Cl)cc1Cl [III-271, N-[(3-chloromethyl-5-isoxazolyl)methyl]-2,4-dichlorobenzamide]",1 (21˜41),,,
"O=C(Cc1ccccc1)NCc1cc(CCl)no1 [I-67, N-[(3-chloromethyl-5-isoxazolyl)methyl]phenylacetamide]",2 (11˜20),,,
"O=C(NCc1cc(CCl)no1)c1cccc2ccccc12 [III-268, N-[(3-chloromethyl-5-isoxazolyl)methyl]-1-naphthalenecarboxamide]",0 (41 or more),,,
"O=C(NCc1cc(CCl)no1)c1ccc(OCCl)cc1 [III-270, N-[(3-chloromethyl-5-isoxazolyl)methyl]-4-chloromethyloxybenzamide]",2 (11˜20),,,
"Cc1ccc(-c2cc(CNC(=O)C3CCCCC3)on2)cc1 [III-222, N-{[3-(4-tolyl)-5-isoxazolyl]methyl}cyclohexanecarboxamide]",,3 (6˜10),4 (1˜5),2 (11˜20)
"O=C(C=Cc1ccccc1)NCc1cc(CCl)no1 [III-266, N-[(3-chloromethyl-5-isoxazolyl)methyl]-β-phenylacrylamide]",1 (21˜41),,,
"Cc1ccccc1C(=O)NCc1cc(CCl)no1 [III-273, N-[(3-chloromethyl-5-isoxazolyl)methyl]-2-methylbenzamide]",0 (41 or more),,,
"Cc1ccc(-c2cc(CNC(=O)N3CCOCC3)on2)cc1 [III-204, N-{[3-(4-tolyl)-5-isoxazolyl]methyl}-4-morpholinecarboxamide]",,2 (11˜20),4 (1˜5),2 (11˜20)
"O=C(NCc1cc(CCl)no1)c1ccc(Br)cc1 [III-260, N-[(3-chloromethyl-5-isoxazolyl)methyl]-4-bromobenzamide]",3 (6˜10),,,
COc1ccc(C(=O)NCc2cc(CN3Cc4ccccc4C3)no2)cc1,1 (21˜41),,,
"O=C(NCc1cc(CCl)no1)C1CCCCC1 [III-233, N-[(3-chloromethyl-5-isoxazolyl)methyl]cyclohexanecarboxamide]",2 (11˜20),,,
"O=C(NCc1cc(CCl)no1)c1ccc(C(F)(F)F)cc1 [III-261, N-[(3-chloromethyl-5-isoxazolyl)methyl]-4-trifluoromethylbenzamide]",2 (11˜20),,,
"O=C(NCc1cc(Cc2ccccc2)no1)c1ccccc1 [IV-1, N-[(3-benzyl-5-isoxazolyl)methyl]benzamide]",,5 (0),,5 (0)
"CNC(=O)c1cc(CNC(=O)NC2CCCCC2)on1 [II-110, 3-(3-methylaminocarbonyl-5-isoxazolyl)methyl-1-cyclohexylurea]",,1 (21˜41),,1 (21˜41)
"Cc1ccc(C(=O)NCc2cc(-c3ccc(F)cc3)no2)cc1 [III-31, N-{[3-(4-fluorophenyl)-5-isoxazolyl]methyl}-4-methylbenzamide]",,5 (0),,5 (0)
"COc1ccc(C(=O)NCc2cc(/C=C/c3ccco3)no2)cc1 [IV-89, N-{[3-(2-(2-furyl)ethenyl)-5-isoxazolyl]methyl}-4-methoxybenzamide]",,5 (0),,5 (0)
"COc1ccc(-c2cc(CNC(=O)c3ccc(C)cc3)on2)cc1 [III-19, N-{[3-(4-methoxyphenyl)-5-isoxazolyl]methyl}-4-methylbenzamide]",,5 (0),,5 (0)
"Cc1ccc(C(=O)NCc2cc(-c3ccc(C)cc3)no2)cc1 [III-11, N-{[3-(4-tolyl)-5-isoxazolyl]methyl}-4-methylbenzamide]",,5 (0),,3 (6˜10)

# Source: US20050171358A1 (priority 2002, published 2005)
